In patent US5624948A, “1-(2-benzimidazolyl)-1,5-diazacyclooctane compounds” (Kissei Pharmaceutical Co., Ltd., priority 1993, dated 1997):

Key:
in vitro = format: cell-based; settings: human, nhek keratinocytes
Description: The 1-(2-benzimidazolyl)-1,5-diazacyclooctane compounds of the present invention show a weak cytotoxicity toward normal human epidermal keratinocytes (NHEK) growth. […] In comparison, the NR50 value of Astemizole is about 4.42 μM.

[1] = test system: DNP-As-induced bronchoconstriction; assay: guinea pig antigen-induced bronchoconstriction model (DNP-As-induced, inhalation of compound); format: in vivo; settings: 0.01 mg/ml solution, inhalation for 1 minute with ultrasonic nebulizer, DNP-As 100 μg protein/ml, 1 ml/kg, i.v.
Source text: In the guinea pig antigen-induced bronchoconstriction model, the 1-(2-benzimidazolyl)-1,5-diazacyclooctane compounds of the present invention also show a potent antiallergic activity and a long-lasting efficacy.

bronchial tissues = settings: topical formulation applied to the bronchia; cited from earlier work
histamine H1-receptor = target: T1, histamine H1-receptor (Cavia porcellus, UniProt P31389); assay: receptor binding assay in blocking 3H-pyrilamine binding to histamine H1-receptor site in guinea pig cerebellum; settings: read-out: 50% inhibitory activity (concentration producing 50% reduction of the binding of the labeled ligand)
T1 construct: histamine H1 -receptor site in guinea pig cerebellum; from tissue; host or cells: guinea pig cerebellum
T1 sequence (P31389 whole entry): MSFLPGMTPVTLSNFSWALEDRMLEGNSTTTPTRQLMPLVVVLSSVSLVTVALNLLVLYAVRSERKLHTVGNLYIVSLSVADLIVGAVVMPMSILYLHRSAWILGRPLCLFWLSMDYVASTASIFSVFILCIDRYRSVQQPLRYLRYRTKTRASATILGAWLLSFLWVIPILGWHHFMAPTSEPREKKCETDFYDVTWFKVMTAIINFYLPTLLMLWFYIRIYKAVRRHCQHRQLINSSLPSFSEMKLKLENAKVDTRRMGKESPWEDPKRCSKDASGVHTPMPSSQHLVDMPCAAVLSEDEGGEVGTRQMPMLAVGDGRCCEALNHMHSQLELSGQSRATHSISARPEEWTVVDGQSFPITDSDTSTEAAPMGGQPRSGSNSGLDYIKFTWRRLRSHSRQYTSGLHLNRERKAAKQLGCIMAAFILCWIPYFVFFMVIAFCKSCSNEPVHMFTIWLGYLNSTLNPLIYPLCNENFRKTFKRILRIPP
Source text: The pharmacological activity of the 1-(2-benzimidazolyl)-1,5-diazacyclooctane compounds of the present invention can be confirmed by receptor binding assay in blocking 3H-pyrilamine binding to histamine H1 -receptor site in guinea pig cerebellum. The 1-(2-benzimidazolyl)-1,5-diazacyclooctane compounds of the present invention show a potent histamine H1 -receptor antagonistic activity, and produce a 50% inhibitory activity in a range of about 10^-10 to 10^-8 M (concentration producing 50% reduction of the binding of the labeled ligand).

COc1ccc(CCN2CCC(Nc3nc4ccccc4n3Cc3ccc(F)cc3)CC2)cc1 [Astemizole]
CC50 (in vitro): ~4.42 µM | inhibition of DNP-As-induced bronchoconstriction at 4 hours after inhalation [1]: about 37.5% | inhibition of DNP-As-induced bronchoconstriction at 8 hours after inhalation [1]: about 29.3% | irritation to bronchial tissues (in words) (bronchial tissues): strong irritation to bronchial tissues

O=C(O)CCc1ccc(CCN2CCCN(c3nc4ccccc4n3Cc3ccc(F)cc3)CCC2)cc1 [Compound 16, 5-[2-[4-(2-Carboxyethyl)phenyl]ethyl]-1-[1-(4-fluorophenylmethyl)-1H-benzimidazol-2-yl]-1,5-diazacyclooctane]
CC50 (in vitro): ~789 µM | IC50 (histamine H1-receptor): ~0.000575 µM | inhibition of DNP-As-induced bronchoconstriction at 4 hours after inhalation [1]: about 54.6% | inhibition of DNP-As-induced bronchoconstriction at 8 hours after inhalation [1]: about 44.7%
